Data as given in patent US20060115571A1, “Functional foods/drinks containing antiallergic component” (priority 2002, published 2006).

Test: stability during the process of preparing the hard candy
Details: powder of an extract of "Benifuki" made into hard candy
Method: Using a powder of an extract of “Benifuki”, a hard candy was prepared. Methylcatechin was contained at 2.7% in the powder of the extract, so one hard candy was designed to contain 3 mg of methylcatechin.

Structure (SMILES): O=C1C[C@@H]2OCC=C3CN4CC[C@]56c7ccccc7N1[C@H]5[C@H]2[C@H]3C[C@H]46 [Strychnine, strychnine]
- stability during the process of preparing the hard candy: stable
